pIC50: −log10 of the molar value.
Experiments:
[1] = Inhibition of EGFR Del19/T790M/C797S triple mutant in mouse BaF3 cells assessed as cell growth inhibition measured after 72 hrs by CellTiter-Glo assay; type: cell-based; settings: BaF3, 72 h
[2] = Inhibition of EGFR L858R/T790M/C797S triple mutant in mouse BaF3 cells assessed as cell growth inhibition measured after 72 hrs by CellTiter-Glo assay; type: cell-based; settings: BaF3, 72 h
NCI-H1975 [3] = assay: Anticancer activity against human NCI-H1975 cells assessed as cell growth inhibition measured after 72 hrs by MTT assay; type: functional, cell-based; settings: NCI-H1975, 72 h
[4] = Inhibition of EGFR L858R/T790M double mutant in mouse BaF3 cells assessed as cell growth inhibition measured after 72 hrs by CellTiter-Glo assay; type: cell-based; settings: BaF3, 72 h
A549 = assay: Anticancer activity against human A549 cells assessed as cell growth inhibition measured after 72 hrs by MTT assay; type: functional, cell-based; settings: A549, 72 h
NCI-H1975 [5] = assay: Potency index, ratio of gefitinib IC50 to test compound IC50 for anticancer activity against human NCI-H1975 cells assessed as cell growth inhibition measured after 72 hrs by MTT assay; type: functional

SMILES | pIC50 [1] | pIC50 [2] | pIC50 (NCI-H1975 [3]) | pIC50 [4] | pIC50 (A549) | Ratio IC50 (NCI-H1975 [5])
O=C(Nc1nccs1)C(c1ccccc1)N1Cc2ccccc2C1=O (stereo not drawn) | < 5.00 | < 5.00 | < 5.00 |  |  | 
COc1cc2ncnc(Nc3ccc(NC(=O)C(c4ccccc4)N4Cc5ccccc5C4=O)cc3F)c2cc1OCCCN1CCOCC1 (stereo not drawn) |  | 5.21 | 5.05 |  |  | 
COc1cc2ncnc(Nc3ccc(NC(=O)C(c4ccccc4)N4Cc5ccccc5C4=O)c(F)c3)c2cc1OCCCN1CCOCC1 (stereo not drawn) |  | 5.23 | 5.43 |  |  | 
COCCOc1cc2ncnc(Nc3ccc(NC(=O)C(c4ccccc4)N4Cc5ccccc5C4=O)cc3)c2cc1OCCOC (stereo not drawn) | < 4.70 | < 4.70 | 5.73 | 5.57 | < 4.70 | 
CNC(=O)CN1CCC(Oc2cc3c(Nc4ccc(NC(=O)C(c5ccccc5)N5Cc6ccccc6C5=O)cc4)ncnc3cc2OC)CC1 (stereo not drawn) | < 4.70 | < 4.70 | < 4.70 | 5.88 | < 4.70 | 
COc1cc2ncnc(Nc3ccc(CNC(=O)C(c4ccccc4)N4Cc5ccccc5C4=O)cc3)c2cc1OCCCN1CCOCC1 (stereo not drawn) |  | < 4.70 | 4.84 |  |  | 
COc1cc2ncnc(NCc3cccc(NC(=O)C(c4ccccc4)N4Cc5ccccc5C4=O)c3)c2cc1OCCCN1CCOCC1 (stereo not drawn) |  | 5.05 | 5.06 |  |  | 
CC(C)(O)CC(=O)NCCn1ccc2ncnc(Nc3ccc(NC(=O)C(c4ccccc4)N4Cc5ccccc5C4=O)cc3)c21 (stereo not drawn) | < 4.70 | < 4.70 | < 4.70 | < 4.70 | < 4.70 | 
COc1cc2ncnc(NNC(=O)c3ccc(NC(=O)C(c4ccccc4)N4Cc5ccccc5C4=O)cc3)c2cc1OCCCN1CCOCC1 (stereo not drawn) |  | < 4.70 | < 4.70 |  |  | 
COc1cc2ncnc(NNC(=O)c3cccc(NC(=O)C(c4ccccc4)N4Cc5ccccc5C4=O)c3)c2cc1OCCCN1CCOCC1 (stereo not drawn) |  | < 4.70 | < 4.70 |  |  | 
COc1cc2ncnc(Nc3ccc(NC(=O)C(c4ccccc4)N4Cc5ccccc5C4=O)cc3)c2cc1OCCCN1CCOCC1 (stereo not drawn) | 5.09 | 5.26 | 5.77 | 5.84 | < 4.70 | 6
COc1cc2ncnc(NCc3ccc(NC(=O)C(c4ccccc4)N4Cc5ccccc5C4=O)cc3)c2cc1OCCCN1CCOCC1 (stereo not drawn) | 5.46 | 5.44 | 4.96 |  |  | 
COc1cc2ncnc(NNc3ccc(NC(=O)C(c4ccccc4)N4Cc5ccccc5C4=O)cc3)c2cc1OCCCN1CCOCC1 (stereo not drawn) |  | 5.11 | 5.29 |  |  | 
COc1cc2ncnc(N(C)c3ccc(NC(=O)C(c4ccccc4)N4Cc5ccccc5C4=O)cc3)c2cc1OCCCN1CCOCC1 (stereo not drawn) |  | 5.07 | 5.20 |  |  | 
COc1cc2ncnc(Nc3ccc(C(=O)NNC(=O)C(c4ccccc4)N4Cc5ccccc5C4=O)cc3)c2cc1OCCCN1CCOCC1 (stereo not drawn) |  | < 4.70 | < 4.70 |  |  | 
COc1cc2ncnc(Nc3cccc(NC(=O)C(c4ccccc4)N4Cc5ccccc5C4=O)c3)c2cc1OCCCN1CCOCC1 (stereo not drawn) |  | 5.04 | 5.03 |  |  | 
C=CC(=O)Nc1cc(Nc2nccc(-c3cn(C)c4ccccc34)n2)c(OC)cc1N(C)CCN(C)C [OSIMERTINIB] | 6.12 |  |  |  |  | 
